# From the supplement of paper PMC3974653
# Where a name gives a salt, the structure may show the parent alone.
# System: MTT (mouse pheochromocytoma)
# Assay: IC50 of cell viability (ATP content)
# Conditions: (24 or 48 h)
# Procedure, shortened: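 Cells of the MTT mouse pheochromocytoma line, 5 µl per well at 200,000 cells/ml, were grown overnight at 37°C, 5% CO2 in white 1536-well plates with DMEM, 5% FBS and 1% horse serum. Pintool transfer then delivered 23 nl of library compound in DMSO, giving 8 final concentrations from 0.5 nM to 46 µM, for an exposure of 24 or 48 hrs. Luminescence from CellTiter-Glo was read after 15 minutes and referenced to positive-control wells (100%) and DMSO wells (0%). IC50 was calculated with a four-parameter logistic fit.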
row,SMILES,IC50 of cell viability [µM]
1,CCOC(=O)c1ccccc1O [ETHYL SALICYLATE],> 46
2,CCOC(N)=O [URETHANE],> 46
3,CC(C)(C)C(=O)NCCCC(=O)O [Pivagabine],> 46
4,OC(O)C(Cl)(Cl)Cl [CHLORAL HYDRATE],> 46
5,CN1C(=O)C(O)N=C(c2ccccc2)c2cc(Cl)ccc21 (stereo not given) [Temazepam],> 46
6,CCCCCCCCCC(=O)NO [DECANOHYDROXAMIC ACID],> 46
7,C[C@H](C(=O)[O-])c1cccc(Oc2ccccc2)c1.C[C@H](C(=O)[O-])c1cccc(Oc2ccccc2)c1.O.O.[Ca+2] [Fenoprofen calcium salt dihydrate],> 46
8,NC(=O)OCCCc1ccccc1 [Phenprobamate],> 46
9,O=C(Nc1ccc(Cl)cc1)Nc1ccc(Cl)c(C(F)(F)F)c1 [Cloflucarban],> 46
10,C/C=C\C(=O)N(CC)c1ccccc1C [Crotamiton],> 46
11,"CCc1cc(OC)c(C[C@H](C)N)cc1OC [(+)-2,5-Dimethoxy-4-ethylamphetamine]",> 46
12,Nc1ccc([As](=O)(O)O)cc1 [Arsanilic acid],> 46
13,CC1(C)[C@@H]2CC[C@@]1(C)C(=O)C2 [Camphor],> 46
14,CC(=O)O[C@@]12CO[C@@H]1C[C@H](O)[C@@]1(C)C(=O)[C@H](O)C3=C(C)[C@@H](OC(=O)C(O)[C@@H](NC(=O)OC(C)(C)C)c4ccccc4)C[C@@](O)([C@@H](OC(=O)c4ccccc4)[C@H]21)C3(C)C (stereo not given in full) [DOCETAXEL],> 46
15,Cc1ccc([S+](=O)([O-])NC(=O)NN2CCCCCC2)cc1 [TOLAZAMIDE],> 46
16,CC[NH+](CC)CCOC(=O)c1ccc(N)cc1Cl [CHLOROPROCAINE HYDROCHLORIDE],> 46
17,CC(=O)O.N=C(N)NCCCC(NC(=O)C1CCCN1C(=O)C1CSSCCC(=O)NC(Cc2ccc(O)cc2)C(=O)NC(Cc2ccccc2)C(=O)NC(CCC(N)=O)C(=O)NC(CC(N)=O)C(=O)N1)C(=O)NCC(N)=O.O.O.O (stereo not given) [DESMOPRESSIN],> 46
18,COC(=O)C(CN)c1c[nH]c2ccc(OC)cc12 (stereo not given) [Indorenate hydrochloride],> 46

row,SMILES,IC50 of cell viability [µM]
1,C=NC(C(=O)NC1C(=O)N2C1SC(C)(C)C2C(=O)[O-])c1ccccc1.[Na+] (stereo not given) [METAMPICILLIN SODIUM],> 46
2,CCCCCCCCCCCCCCCCCC(=O)OCC(C)O (stereo not given) [PROPYLENE GLYCOL STEARATE SE],> 46
3,CCN(CC)[C@@H](C)CN1c2ccccc2Sc2ccccc21 [Ethopropazine hydrochloride],> 46
4,CC[N+](CC)(CCNC(=O)C(=O)NCC[N+](CC)(CC)Cc1ccccc1Cl)Cc1ccccc1Cl [AMBENONIUM],> 46
5,NCC(O)CC(=O)O (stereo not given) [AMINOHYDROXYBUTYRIC ACID],> 46
6,"CC1=CCC(C(C)(C)O)CC1 (racemic) [Terpineol, mixture of isomers]",> 46
7,O=C(O)CCCc1ccc(N(CCCl)CCCl)cc1 [CHLORAMBUCIL],> 46
8,COc1cc(C(=O)NCc2ccc(OCCN(C)C)cc2)cc(OC)c1OC [Trimethobenzamide hydrochloride],> 46
9,CC(C)(C)c1nnc(N[S+](=O)([O-])c2ccccc2)s1 [GLYBUZOLE],> 46
10,CN1CC[C@@]23C4OC5=C(O)C=CC(=C25)C[C@@H]1C3\C=C/C4O (stereo not given in full) [Morphine],> 46
11,COP(=O)(OC)OC=C(Cl)Cl [Dichlorvos (Vapona)],> 46
12,CC1(C(=O)O)CCC2(C)CCC3(C)C(=CC(=O)C4C5(C)CCC(O)C(C)(C)C5CCC43C)C2C1 (stereo not drawn) [18ALPHA-GLYCYRRHETINIC ACID],> 46
13,F[Si-2](F)(F)(F)(F)F [SODIUM HEXAFLUOROSILICATE],> 46
14,CC(C)COCC(CN(Cc1ccccc1)c1ccccc1)N1CCCC1 (stereo not given) [BEPRIDIL],> 46
15,CC(C)(C)CC(=O)OCC(=O)[C@@]12OC(C)(C)O[C@@H]1C[C@H]1[C@@H]3CCC4=CC(=O)C=C[C@]4(C)[C@@]3(F)[C@@H](O)C[C@]12C [Triamcinolone hexacetonide],> 46
16,C[C@@H](CN(C)C)CN1c2ccccc2CCc2ccccc21 [Trimipramine maleate salt],> 46
17,C[C@@H]1O[C@@H](O[C@H]\2CC[C@]\3(C)[C@@H]4CC[C@]5(C)[C@@H](CC[C@@]5(O)[C@H]4CCC3=C2)C/6=C/OC(=O)/C=C6)[C@H](O)[C@H](O)[C@@H]1O [Proscillaridin A],> 46
